The values below come from PubChem BioAssay (NCI).

What all share (assay): NCI anticancer screen, dose series, 48 h
The test system of assay [1] is M14 melanoma.
In assay [2] the test system is SW-620 colon.
In assay [3] the test system is RPMI-8226 leukemia.
The test system of assay [4] is SK-OV-3 ovarian.
Assay [5] relates to CCRF-CEM leukemia.
For assay [6], the system named is NCI/ADR-RES ovarian.
Assay [7] has as its system HCT-116 colon.
In assay [8] the test system is K-562 leukemia.
Assay [9] concerns PC-3 prostate.
The test system of assay [10] is SK-MEL-5 melanoma.

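48-hour exposure; five concentrations; linearly interpolated endpoints. GI50: concentration for 50% inhibition of growth. TGI marks complete inhibition of growth.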 A value given as a limit tells only on which side of the number the result lay.

On to `COc1cc2c(cc1C)NC(=O)/C2=C/c1c(C)nc2sc(C)cn12`, for which the GI50 in assay [1] is 44.2 µM; in assay [2], 63 µM; in assay [3] it was 31.3 µM; in assay [4], over 100 µM; in [5], 53.4 µM; in assay [6], 45.5 µM. Also, the GI50 is 53.5 µM in assay [7], 35.3 µM in assay [8], 34.3 µM in assay [9] and 24.4 µM in assay [10]. In addition, the TGI in assay [1], in assay [2], in assay [3], in assay [4], in assay [5] and in assay [6] was over 100 µM throughout. Also, the TGI in [7] was over 100 µM; in assay [8], over 100 µM; in assay [9] it was over 100 µM; in [10], 64.7 µM.

On to `COc1ccc2oc(-c3ccc(Cl)cc3)c(N3CCN(C)CC3)c2c1`, for which the GI50 in assay [1] was 1.95 µM; in assay [2], 1.82 µM; in assay [3], 1.25 µM; in assay [4] it was 2.17 µM; in assay [5] it was 1.71 µM; in assay [6], 2.19 µM. The GI50 in assay [7] was 1.98 µM; in assay [8] it was 3.38 µM; in assay [9], 1.69 µM; in [10], 1.58 µM. Moreover, the TGI worked out at 4.26 µM in [1]; 3.48 µM in [2]; 4.72 µM in [3]; 4.99 µM in assay [4]; 4.06 µM in assay [5]; 5.46 µM in assay [6]. In addition, the TGI in assay [7] was 4.59 µM; in assay [8] it was over 100 µM; in assay [9] it was 5.54 µM; in assay [10], 3.06 µM.

Consider `CC1=NN(c2ccccc2)C(=O)C1C(=O)C(=O)Nc1ccc(C)cc1C` (stereo not drawn), for which the TGI in [1], in assay [2], in assay [3], in [4], in assay [5] and in assay [6] was over 100 µM in each case. The TGI in assay [7], in assay [8], in assay [9] and in [10] was over 100 µM each time.

With `Cn1cc(C2=C(c3cccc(NCC(O)CO)c3)C(=O)NC2=O)c2cc(Cl)ccc21` (stereo not drawn), the GI50 in [1] is 6.59 µM; in assay [2] it was 4.26 µM; in assay [3] it was 5.56 µM; in assay [4], 4.78 µM; in assay [5], 3.92 µM; in assay [6] it was 12.5 µM. For the same compound, the GI50 in assay [7] is 2.4 µM; in assay [8], 2.19 µM; in [9], 2.88 µM; in assay [10], 3.32 µM. The TGI in assay [1] was 18.4 µM; in assay [2] it was 15.7 µM; in assay [3], 13.9 µM; in [4], over 23 µM; in assay [5], over 21.8 µM; in assay [6], over 25 µM. Moreover, the TGI in [7] is over 25 µM; in assay [8], over 25 µM; in [9], 12.9 µM; in assay [10], 7.14 µM.

As for `O=C(O)C#Cc1ccc([N+](=O)[O-])cc1`, the TGI in [1], in assay [2], in [3], in assay [4], in assay [5] and in assay [6] was over 100 µM in each case. The TGI in assay [7], in [8], in assay [9] and in assay [10] was over 100 µM throughout.

In the case of `COc1ccc2c(c1)N(CCC1CCCCN1C)c1ccccc1S2` (stereo not drawn), the TGI in [1] came to 10.9 µM; in [2], 35.5 µM; in assay [3] it was 29.5 µM; in assay [4] it was 31 µM; in [5] it was 28.9 µM; in [6], 25.4 µM. Further, the TGI in assay [7] came to 27.2 µM; in [8] it was 18.2 µM; in assay [9] it was 22.7 µM; in [10], 24.8 µM.

On to `COc1cc2c3c(n(CCCN4CCOCC4)c(=O)c2cc1OC)-c1cc2c(cc1C3=O)OCO2`, for which the GI50 in [1] is 0.9 µM; in [2], 8.94 µM; in assay [3] it was 0.608 µM; in assay [4] it was over 77.6 µM; in assay [5], 0.0934 µM; in assay [6], 1.57 µM. Further, the GI50 in assay [7] is 1.8 µM; in assay [8] it was 4.54 µM; in assay [9] it was 18.7 µM; in assay [10], 1.34 µM. For the same compound, the TGI was 22.2 µM in assay [1]; over 100 µM in assay [2]; 16.8 µM in assay [3]; over 100 µM in assay [4]; 3.34 µM in assay [5]; 27.1 µM in assay [6]. The TGI was 17.4 µM in [7], over 100 µM in [8], over 100 µM in [9] and 12.2 µM in assay [10].

For the compound `CN(C)CCOc1cccc(NC2=C(Cl)C(=O)C(Nc3cccc(OCCN(C)C)c3)=C(Cl)C2=O)c1`, the GI50 was 1.14 µM in [1]; 0.207 µM in assay [2]; 0.306 µM in assay [3]; 11.3 µM in [4]; 0.256 µM in assay [5]; 2.44 µM in assay [6]. Further, the GI50 in assay [7] was 0.18 µM; in assay [8] it was 0.162 µM; in assay [9], 1.52 µM; in assay [10], 0.792 µM. The TGI in [1] was 2.53 µM; in assay [2], 0.438 µM; in assay [3] it was 1.03 µM; in assay [4] it was 23.4 µM; in [5], 0.932 µM; in [6] it was over 26.4 µM. Moreover, the TGI was found to be 0.385 µM in [7], 0.608 µM in assay [8], 3.25 µM in [9] and 2.04 µM in assay [10].

For the compound `Cn1c2ccccc2c(=S)c2cc(NC(=O)CCCCC(=O)Nc3ccc4c(c3)c(=S)c3ccccc3n4C)ccc21`, the TGI in assay [1], in assay [2], in assay [3], in [4], in assay [5] and in [6] was over 100 µM in each case. Further, the TGI in assay [7], in assay [8], in assay [9] and in [10] was over 100 µM throughout.

As to `CCCNNC(=O)c1ccc(CNC(=O)/C=C/c2ccccc2)cc1`, the GI50 in assay [1] is 0.079 µM; in assay [2], 0.125 µM; in [3], 0.101 µM; in [4], 0.134 µM; in assay [5], 0.115 µM; in [6] it was 0.111 µM. Besides, the GI50 was 0.0547 µM in [7], 0.0732 µM in assay [8], 0.173 µM in [9] and 0.102 µM in [10]. Moreover, the TGI in [1] was over 100 µM; in [2] it was 1.06 µM; in assay [4] it was 1.47 µM; in assay [5], over 100 µM; in assay [7] it was 0.527 µM; in [8] it was over 100 µM. Besides, the TGI in assay [9] was over 100 µM; in [10], 0.262 µM.

Regarding `O=C1/C(=c2\c3ccccc3n3c(=O)c4ccccc4nc23)Nc2ccccc21`, the TGI in [1], in assay [2], in assay [3], in assay [4], in assay [5] and in assay [6] was over 100 µM each time. Besides, the TGI in [7], in assay [8], in assay [9] and in [10] was over 100 µM throughout.

Regarding `O=C1C=CC(=O)N1CCCCCCCCCCN1C(=O)C=CC1=O`, the GI50 in [1] was 6.9 µM; in assay [2] it was 2.42 µM; in [3], 6.72 µM; in assay [4], over 100 µM; in assay [5] it was 4.05 µM; in assay [6], 21.2 µM. Further, the GI50 in assay [7] is 3.6 µM; in [8], 7.63 µM; in assay [9] it was 18.1 µM; in [10] it was 22.2 µM. The TGI in [1] was 20 µM; in assay [2] it was 6.09 µM; in assay [3], 57.7 µM; in assay [4], over 100 µM; in assay [5], over 100 µM; in [6] it was 55.9 µM. The TGI stood at 12.9 µM in assay [7], 67.9 µM in assay [8], 36.5 µM in [9] and 56.1 µM in [10].

`C(#Cc1ccccc1C#Cc1ccccn1)c1ccc(OCCCCCCOc2ccc(C#Cc3ccccc3C#Cc3ccccn3)cc2)cc1`: the GI50 in assay [1] is 7.47 µM; in [2], 4.51 µM; in assay [3] it was 0.387 µM; in assay [4], 7.87 µM; in [5] it was 0.0276 µM; in [6], 2.43 µM. For the same compound, the GI50 in assay [7] is 6.83 µM; in [8] it was 1.81 µM; in [9], 5.18 µM; in [10], 1.73 µM. Moreover, the TGI came out at 17.6 µM in [1]; 10.6 µM in assay [2]; 10.1 µM in [3]; 20.1 µM in assay [4]; 0.151 µM in assay [5]; 18.3 µM in assay [6]. The TGI was 15.9 µM in assay [7], 18.5 µM in [8], 14 µM in assay [9] and 7.26 µM in assay [10].

As for `Cc1cc(Cl)ccc1Nc1nc(C(F)(F)F)ccc1C(=O)N/N=C/c1ccc(F)cc1`, the GI50 in assay [1] was 1.84 µM; in [2], 2.06 µM; in assay [3], 1.79 µM; in assay [4] it was 1.34 µM; in [5], 0.528 µM; in assay [6] it was 2.27 µM. Moreover, the GI50 in assay [7] is 1.4 µM; in assay [8] it was 1.89 µM; in [9], 1.85 µM; in assay [10] it was 1.58 µM. Moreover, the TGI came out at 9.64 µM in assay [1]; 13.5 µM in [2]; 7.37 µM in assay [3]; 6.58 µM in assay [4]; 5.9 µM in assay [5]; 19.2 µM in assay [6]. Moreover, the TGI turned out to be 11.1 µM in [7], 6.05 µM in assay [8], 8.64 µM in assay [9] and 3.13 µM in assay [10].
